In paper PMC9501232, “Novel 4-Azapregnene Derivatives as Potential Anticancer Agents: Synthesis, Antiproliferative Activity and Molecular Docking Studies” (Molecules, 2022):

Legend:
[1] = system: caspase-9 activity in T47-D cells; experiment: Caspase-Glo 9 caspase-9 activity assay; type: cell-based, human; conditions: 48 h, DOX 10 µM, 3g 10 and 20 µM, relative to untreated cells
Description: Promega Caspase-Glo 9 assay (Promega, Madison, WI, USA) was employed to evaluate the caspase-9 activity. T47-D cells were seeded in a 96 multiwell plate at a density of 4 × 10^4 cells/mL. After 48 h, cells were treated with the positive control, DOX, at 10 μM and with 10 and 20 μM of 3g, during 48 h. The assay was performed at the end of treatment, following the instructions provided by the manufacturer. Data are representative of at least two experiments (n = 4 in each).

[2] = system: LNCaP cells; experiment: MTT cell proliferation assay, LNCaP; type: cell-based, human; conditions: 30 µM, 72 h, average ± SD
Description: (§1) Cell lines, namely LNCaP, PC-3, T47-D and NHDF were obtained from American Type Culture Collection (ATCC; Manassas, VA, USA) and cultured in 75 cm^2 culture flasks at 37 °C in a humidified air incubator with 5% CO2. LNCaP, PC-3 and T47-D cells, which were used in passages 20th to 27th, 25th to 29th and 10th to 15th, respectively, were cultured in RPMI 1640 medium (Sigma-Aldrich, Inc., St. Louis, MO, USA) with 10% fetal bovine serum (FBS; Sigma-Aldrich, Inc. St. Louis, MO, USA) and 1% of the antibiotic mixture of 10,000 IU/mL penicillin G and […] of streptomycin (Sp, Sigma-Aldrich, Inc. St. Louis, MO, USA). Finally, NHDF cells (Normal Human Dermal Fibroblasts) were cultured in RPMI 1640 medium supplemented with 10% FBS, 2 mM L-glutamine, 10 mM HEPES, 1 mM sodium pyruvate and 1% of an antibiotic/antimycotic mixture (10,000 U/mL penicillin G, 100 mg/mL streptomycin and 25 µg/mL amphotericin B) (Ab; Sigma-Aldrich, Inc. St. Louis, MO, USA), and these cells were used in passages 10 to 12. For all cell types, the medium was renewed every 2–3 days until cells reach nearly the confluence state. Then, they were detached gently by trypsinization (trypsin-EDTA solution: 0.125 g/L of trypsin and 0.02 g/L of EDTA).
(§2) All the stock solutions were prepared by dissolving compounds in dimethyl sulfoxide (DMSO; Sigma-Aldrich, Inc., St. Louis, MO, USA) at 10 mM and stored at 4 °C. From these solutions, the several diluted compounds solutions in different concentrations were freshly prepared in a complete culture medium before each experiment.
(§3) As previously referred, cells were trypsinized after reaching a near confluence state and counted by the trypan blue exclusion assay in a Neubauer chamber. Then, 100 µL of cell suspension/well with an initial density of 2 × 10^4 cells/mL were seeded in 96-well culture plates (Nunc, Apogent, Denmark) and left to adhere for 48 h. After cells adherence, the medium was replaced by the distinct solutions of the compounds in the study (30 µM for preliminary studies and 0.01, 0.1, 1, 10, 50 and 100 µM for concentration–response studies) in the appropriate medium for approximately 72 h. 5-FU and finasteride were used as positive controls and untreated cells were used as the negative control. Each experiment was performed in quadruplicate and independently performed at least two times. The in vitro antiproliferative effects were evaluated by the MTT assay (Sigma-Aldrich, Inc. St. Louis, USA). After the incubation period, the medium was removed and 100 µL of phosphate buffer saline (NaCl 137 mM, KCl 2.7 mM, Na2HPO4 10 mM and KH2PO4 1.8 mM in deionized water and pH adjusted to 7.4) were used to wash the cells. Then, 100 µL of the MTT solution (5 mg/mL) was prepared in the appropriate serum-free medium and was added to each well, followed by incubation for 4 h at 37 °C. Hereafter, the MTT containing medium was removed and the formazan crystals were dissolved in DMSO. Then the absorbance was measured at 570 nm using a microplate spectrophotometer BIO-RAD xMarkTM. Cell viability values were expressed as percentages relative to the absorbance determined in the cells used as negative controls.
(§4) The data are expressed as a mean ± standard deviation (SD) and differences between groups were considered statistically significant when p < 0.05. The IC50 values were determined through sigmoidal fitting analysis with variable slope and considering a 95% confidence level. All data shown are representative of at least two independent experiments.

[3] = system: PC-3 cells; experiment: MTT cell proliferation assay, PC-3; type: cell-based, human; conditions: PC-3, 30 µM, 72 h, average ± SD
Description: as §1, §2, §3, §4

[4] = system: T47-D cells; experiment: MTT cell proliferation assay, T47-D; type: cell-based, human; conditions: 30 µM, 72 h, average ± SD
Description: as §1, §2, §3, §4

[5] = system: NHDF cells (Normal Human Dermal Fibroblasts); experiment: MTT cell proliferation assay, NHDF; type: cell-based; conditions: 30 µM, 72 h, average ± SD
Description: as §1, §2, §3, §4

[6] = system: LNCaP cells; experiment: Microscopic cell morphology observation; type: cell-based, human; conditions: 24 and 72 h of treatment
Description: In our previous work, 16E-arylidene-4-azaandrost-5-ene derivatives were synthesized, their antiproliferative effects were evaluated and further studies were performed with the most promising steroid in LNCaP cells. Due to the similarity of 16E-arylidene-4-azaandrostenes and these novel 21E-arylidene-4-azapregnene derivatives, identical studies in this cell line were performed, namely a flow cytometry assay and microscopic cell morphology observation. To assess the viability of LNCaP cells when exposed to steroid 3g, a flow cytometry assay after PI staining was performed. Cells were treated with 3g and 5-FU during 24 and 72 h, and then a microscopic cell observation was performed to assess the possible morphological alterations and cell density changes triggered by incubation with 3g and compare with controls (Figure 6).
Similar to the previous study, the analysis of cell viability was accomplished by flow cytometry after staining dead cells with propidium iodide (PI; Invitrogen, Carlsbad, USA). Succinctly, 1 mL of a cell suspension was seeded in 12-well culture plates (initial cell density of 5 × 10^4 cells/mL of LNCaP cells for 24 h assay and 2 × 10^4 cells/mL of the same cell line for 72 h assay) in a complete culture medium. […] The percentages of each region were calculated for a total of R1 + R2 + R3. […]

| Compound | Caspase-9 activity [1] | MTT screening, cell proliferation [2] | MTT screening, cell proliferation [3] | MTT screening, cell proliferation [4] | MTT screening, cell proliferation [5] | Cell morphology and cell density [6] |
| --- | --- | --- | --- | --- | --- | --- |
| COc1cccc2c1C(=O)c1c(O)c3c(c(O)c1C2=O)C[C@@](O)(C(=O)CO)C[C@@H]3O[C@H]1C[C@H](N)[C@H](O)[C@H](C)O1 [DOX, doxorubicin, reference compound] | significant elevation in caspase-9 activity |  |  |  |  |  |
| CC(C)(C)NC(=O)[C@H]1CC[C@H]2[C@@H]3CC[C@H]4NC(=O)C=C[C@]4(C)[C@H]3CC[C@]12C [Finasteride, reference compound] |  | 88.5 ± 2.4 percentage of negative control | 78.8 ± 8.7 percentage of negative control | 103.5 ± 17.8 percentage of negative control | 62.8 ± 5.9 percentage of negative control | cell density reduction and the preservation of healthy cells morphology |
